Broadly, the IC50 is the concentration that gives 50% inhibition. Low values mean greater potency, high ones weaker potency.

For the experiment, the target named is IDO (Homo sapiens, UniProt P14902). In words: LLE_IDO_ABS_DR (IDO assay).
Chain of IDO (P14902 whole entry): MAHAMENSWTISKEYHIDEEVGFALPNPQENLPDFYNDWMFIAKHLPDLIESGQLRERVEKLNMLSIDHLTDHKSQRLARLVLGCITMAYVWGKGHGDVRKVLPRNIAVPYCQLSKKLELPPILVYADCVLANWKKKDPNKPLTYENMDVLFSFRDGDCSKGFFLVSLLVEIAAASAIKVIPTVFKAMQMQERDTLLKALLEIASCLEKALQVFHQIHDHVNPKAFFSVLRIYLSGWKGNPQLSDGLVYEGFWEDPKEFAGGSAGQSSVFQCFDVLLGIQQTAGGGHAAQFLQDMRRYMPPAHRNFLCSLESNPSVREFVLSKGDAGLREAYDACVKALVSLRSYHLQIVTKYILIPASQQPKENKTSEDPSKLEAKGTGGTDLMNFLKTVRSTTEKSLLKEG
As for `C#Cc1cccc(NC(=O)Nc2cc(-c3ccccc3-c3nnn[nH]3)ccc2N(CC(C)C)CC(C)C)c1` [Example 241, 1-(4-(diisobutylamino)-2′-(1H-tetrazol-5-yl)-[1,1′-biphenyl]-3-yl)-3-(3-ethynylphenyl)urea], inhibition was half-maximal at 20 nM (IC50).

As to `C#CCOc1cccc(NC(=O)Nc2cc(-c3ccccc3-c3nnn[nH]3)ccc2N(CC(C)C)CC(C)C)c1` [Example 242, 1-(4-(diisobutylamino)-2′-(1H-tetrazol-5-yl)-[1,1′-biphenyl]-3-yl)-3-(3-(prop-2-yn-1-yloxy)phenyl)urea], the midpoint of inhibition, the IC50, lay at 4.72 nM.

On to `CC(C)CN(CC(C)C)c1ccc(-c2ccccc2-c2nnn[nH]2)cc1NC(=O)Nc1c(F)cc(Cl)cc1F` [Example 243, 1-(4-chloro-2,6-difluorophenyl)-3-(4-(diisobutylamino)-2′-(1H-tetrazol-5-yl)-[1,1′-biphenyl]-3-yl)urea], for which 0.76 nM corresponded to half-maximal inhibition (IC50).

The molecule `C#CCOc1ccc(NC(=O)Nc2cc(-c3ccccc3-c3nnn[nH]3)ccc2N(CC(C)C)CC(C)C)cc1` [Example 244] gave an IC50 of 9.3 nM.

On to `CC(C)CNC(=O)Nc1cc(-c2ccccc2-c2nnn[nH]2)ccc1N(CC(C)C)CC(C)C` [Example 245, 1-(4-(diisobutylamino)-2′-(1H-tetrazol-5-yl)-[1,1′-biphenyl]-3-yl)-3-isobutylurea], for which it took 180 nM to reach half-maximal inhibition (IC50).

`CC(C)CN(CC(C)C)c1ccc(-c2ccccc2-c2nnn[nH]2)cc1NC(=O)NC(C)C` [Example 246, 1-(4-(diisobutylamino)-2′-(1H-tetrazol-5-yl)-[1,1′-biphenyl]-3-yl)-3-isopropylurea] registered an IC50 of 1220 nM.

For the molecule `CC(C)CN(CC(C)C)c1ccc(-c2ccccc2-c2nnn[nH]2)cc1NC(=O)Nc1cccc2cnccc12` [Example 247, 1-(4-(diisobutylamino)-2′-(1H-tetrazol-5-yl)-[1,1′-biphenyl]-3-yl)-3-(isoquinolin-5-yl)urea], the IC50 turned out to be 2760 nM.

In turn, `CNC(=O)c1ccccc1NC(=O)Nc1cc(-c2ccccc2-c2nnn[nH]2)ccc1N(CC(C)C)CC(C)C` [Example 248, 2-(3-(4-(diisobutylamino)-2′-(1H-tetrazol-5-yl)-[1,1′-biphenyl]-3-yl)ureido)-N-methylbenzamide] had an IC50 of 5070 nM.

With `CC(C)CN(CC(C)C)c1ccc(-c2ccccc2-c2nnn[nH]2)cc1NC(=O)Nc1ccc(C(F)(F)F)cc1` [Example 249], the IC50 was 140 nM.

As to `CC(C)CN(CC(C)C)c1ccc(-c2ccccc2-c2nnn[nH]2)cc1NC(=O)Nc1ccc(F)c(C#N)c1` [Example 250, 1-(3-Cyano-4-fluorophenyl-3-(4-diisobutylamino)-2′-(1H-tetrazol-5-yl)-[1,1′-biphenyl]-3-yl)urea], half-maximal inhibition (IC50) required 930 nM.

Consider `CC(C)CN(CC(C)C)c1ccc(-c2ccccc2-c2nnn[nH]2)cc1NC(=O)Nc1cc(F)cc(Cl)c1` [Example 251, 1-(3-chloro-5-fluorophenyl)-3-(4-(diisobutylamino)-2′-(1H-tetrazol-5-yl)-[1,1′-biphenyl]-3-yl)urea], for which the IC50 was determined as 90 nM.

`COc1cc(NC(=O)Nc2cc(-c3ccccc3-c3nnn[nH]3)ccc2N(CC(C)C)CC(C)C)ccc1F` [Example 252, 1-(4-(diisobutylamino)-2′-(1H-tetrazol-5-yl)-[1,1′-biphenyl]-3-yl)-3-(4-fluoro-3-methoxyphenyl)urea] displayed an IC50 of 1230 nM.

As to `CC(C)CN(CC(C)C)c1ccc(-c2ccccc2-c2nnn[nH]2)cc1NC(=O)Nc1cccc(-c2cnco2)c1` [Example 253, 1-(4-(diisobutylamino)-2′-(1H-tetrazol-5-yl)-[1,1′-biphenyl]-3-yl)-3-(3-(oxazol-5-yl)phenyl)urea], the IC50 stood at 2490 nM.

`CC(C)CN(CC(C)C)c1ccc(-c2ccccc2-c2nnn[nH]2)cc1NC(=O)Nc1cc(C(N)=O)ccc1Cl` [Example 254, 4-chloro-3-(3-(4-(diisobutylamino)-2′-(1H-tetrazol-5-yl)-[1,1′-biphenyl]-3-yl)ureido)benzamide] returned an IC50 of 6070 nM.

In the case of `CC(C)CN(CC(C)C)c1ccc(-c2ccccc2-c2nnn[nH]2)cc1NC(=O)Nc1ccc(-c2cnco2)cc1` [Example 255, 1-(4-(diisobutylamino)-2′-(1H-tetrazol-5-yl)-[1,1′-biphenyl]-3-yl)-3-(4-(oxazol-5-yl)phenyl)urea], the IC50 came out at 30 nM.

`CC(C)CN(CC(C)C)c1ccc(-c2ccccc2-c2nnn[nH]2)cc1NC(=O)Nc1ccccc1-n1cncn1` [Example 256, 1-(2-(1H-1,2,4-triazol-1-yl)phenyl)-3-(4-(diisobutylamino)-2′-(1H-tetrazol-5-yl)-[1,1′-biphenyl]-3-yl)urea]: the IC50 came to 4180 nM.

`CC(C)CN(CC(C)C)c1ccc(-c2ccccc2-c2nnn[nH]2)cc1NC(=O)Nc1cccc(N=[N+]=[N-])c1` [Example 257, 1-(3-azidophenyl)-3-(4-(diisobutylamino)-2′-(1H-tetrazol-5-yl)-[1,1′-biphenyl]-3-yl)urea] registered an IC50 of 2.73 nM.

In turn, `CC(C)CN(CC(C)C)c1ccc(-c2ccccc2-c2nnn[nH]2)cc1NC(=O)Nc1ccc(F)c(Br)c1` [Example 258, 1-(3-bromo-4-fluorophenyl)-3-(4-(diisobutylamino)-2′-(1H-tetrazol-5-yl)-[1,1′-biphenyl]-3-yl)urea] gave an IC50 of 90 nM.

`CC(C)CN(CC(C)C)c1ccc(-c2ccccc2-c2nnn[nH]2)cc1NC(=O)Nc1ccc2sccc2c1` [Example 259, 1-(benzo[b]thiophen-5-yl)-3-(4-(diisobutylamino)-2′-(1H-tetrazol-5-yl)-[1,1′-biphenyl]-3-yl)urea] registered an IC50 of 2.44 nM.

Molecule `CC(C)CN(CC(C)C)c1ccc(-c2ccccc2-c2nnn[nH]2)cc1NC(=O)Nc1ccc(C#N)cc1F` [Example 260] came in with an IC50 of 6.48 nM.

`COc1cc(NC(=O)Nc2cc(-c3ccccc3-c3nnn[nH]3)ccc2N(CC(C)C)CC(C)C)ccc1C#N` [Example 261, 1-(4-cyano-3-methoxyphenyl)-3-(4-(diisobutylamino)-2′-(1H-tetrazol-5-yl)-[1,1′-biphenyl]-3-yl)urea]: the IC50 was found to be 4310 nM.

Turning to `CC(C)CN(CC(C)C)c1ccc(-c2ccccc2-c2nnn[nH]2)cc1NC(=O)Nc1cccc(N(C)C)c1` [Example 262, 1-(4-(diisobutylamino)-2′-(1H-tetrazol-5-yl)-[1,1′-biphenyl]-3-yl)-3-(3-(dimethylamino)phenyl)urea], the IC50 worked out at 190 nM.

With `CC(C)CN(CC(C)C)c1ccc(-c2ccccc2-c2nnn[nH]2)cc1NC(=O)Nc1cccc(F)c1F` [Example 263, 1-(2,3-difluorophenyl)-3-(4-(diisobutylamino)-2′-(1H-tetrazol-5-yl)-[1,1′-biphenyl]-3-yl)urea], the IC50 was 7.97 nM.

For `Cc1ccc(NC(=O)Nc2cc(-c3ccccc3-c3nnn[nH]3)ccc2N(CC(C)C)CC(C)C)c(F)c1` [Example 264, 1-(4-(diisobutylamino)-2′-(1H-tetrazol-5-yl)-[1,1′-biphenyl]-3-yl)-3-(2-fluoro-4-methylphenyl)urea], the IC50 was 2.61 nM.

Regarding `CC(C)CN(CC(C)C)c1ccc(-c2ccccc2-c2nnn[nH]2)cc1NC(=O)Nc1cccc(S(N)(=O)=O)c1` [Example 266, 3-(3-(4-(diisobutylamino)-2′-(1H-tetrazol-5-yl)-[1,1′-biphenyl]-3-yl)ureido) benzenesulfonamide], the IC50 was determined as 4490 nM.

For the molecule `CC(C)CN(CC(C)C)c1ccc(-c2ccccc2-c2nnn[nH]2)cc1NC(=O)Nc1cccc(-n2ccnc2)c1` [Example 267, 1-(3-(1H-imidazol-1-yl)phenyl)-3-(4-(diisobutylamino)-2′-(1H-tetrazol-5-yl)-[1,1′-biphenyl]-3-yl)urea], half-maximal inhibition (IC50) was put at 1460 nM.

As to `CC(C)CN(CC(C)C)c1ccc(-c2ccccc2-c2nnn[nH]2)cc1NC(=O)NCC1CCCCC1` [Example 268, 1-(cyclohexylmethyl)-3-(4-(diisobutylamino)-2′-(1H-tetrazol-5-yl)-[1,1′-biphenyl]-3-yl)urea], the IC50 stood at 830 nM.

`C#CCOc1ccccc1NC(=O)Nc1cc(-c2ccccc2-c2nnn[nH]2)ccc1N(CC(C)C)CC(C)C` [Example 269, 1-(4-(diisobutylamino)-2′-(2H-tetrazol-5-yl)-[1,1′-biphenyl]-3-yl)-3-(2-(prop-2-yn-1-yloxy)phenyl)urea] registered an IC50 of 250 nM.

`CC(C)CN(CC(C)C)c1ccc(-c2ccccc2-c2nnn[nH]2)cc1NC(=O)Nc1ccccc1N1CCCCC1` [Example 270, 2-(4-(diisobutylamino)-2′-(1H-tetrazol-5-yl)-[1,1′-biphenyl]-3-yl)-3-(2-(piperidin-1-yl)phenyl)urea] returned an IC50 of 1830 nM.

The molecule `CC(C)CN(CC(C)C)c1ccc(-c2ccccc2-c2nnn[nH]2)cc1NC(=O)Nc1ccc(F)c(C(F)(F)F)c1` [Example 271, 1-(4-(diisobutylamino)-2′-(1H-tetrazol-5-yl)-[1,1′-biphenyl]-3-yl)-3-(4-fluoro-3-(trifluoromethyl)phenyl) urea] showed an IC50 of 1010 nM.

`CC(C)CN(CC(C)C)c1ccc(-c2ccccc2-c2nnn[nH]2)cc1NC(=O)Nc1ccc(F)cc1OC(C)C` [Example 272, 1-(4-(diisobutylamino)-2′-(1H-tetrazol-5-yl)-[1,1′-biphenyl]-3-yl)-3-(4-fluoro-2-isopropoxyphenyl)urea]: the IC50 was found to be 2720 nM.

The molecule `CC(C)CN(CC(C)C)c1ccc(-c2ccccc2-c2nnn[nH]2)cc1NC(=O)Nc1cccc(OC(F)(F)F)c1` [Example 273, 1-(4-(diisobutylamino)-2′-(1H-tetrazol-5-yl)-[1,1′-biphenyl]-3-yl)-3-(3-(trifluoromethoxy)phenyl)urea] came in with an IC50 of 180 nM.

The molecule `CC(C)CN(CC(C)C)c1ccc(-c2ccccc2-c2nnn[nH]2)cc1NC(=O)Nc1ccccc1C1CC1` [Example 274, 1-(2-cyclopropylphenyl)-3-(4-(diisobutylamino)-2′-(1H-tetrazol-5-yl)-[1,1′-biphenyl]-3-yl)urea] yielded an IC50 of 460 nM.

In turn, `CC(C)CN(CC(C)C)c1ccc(-c2ccccc2-c2nnn[nH]2)cc1NC(=O)Nc1cccc(F)c1O` [Example 275, 1-(4-(diisobutylamino)-2′-(1H-tetrazol-5-yl)-[1,1′-biphenyl]-3-yl)-3-(3-fluoro-2-hydroxyphenyl)urea] had an IC50 of 500 nM.

For `CC(C)CN(CC(C)C)c1ccc(-c2ccccc2-c2nnn[nH]2)cc1NC(=O)Nc1cccc2c1CCC2` [Example 276, 1-(2,3-dihydro-1H-inden-4-yl)-3-(4-(diisobutylamino)-2′-(1H-tetrazol-5-yl)-[1,1′-biphenyl]-3-yl)urea], the IC50 is 780 nM.
